As usually defined, the IC50 is the concentration that inhibits the measured activity by half.

This series in a line: Inhibition of human ABCB1 expressed in mouse L5178Y cells assessed as reduction in cell growth after 24 hrs by MTT assay. In general terms: Formazan colour is commonly taken as a measure of viable cells.
Regarding `CC[C@H]1CN(C)[C@H]2Cc3c([nH]c4ccccc34)/C(=N/NC(=O)OCc3ccc(OC)cc3)C[C@H]1[C@@H]2C(=O)OC`, the IC50 was found to be 52.3 µM.
The same measure for `CC[C@@H]1CN(C)[C@H]2Cc3c([nH]c4ccccc34)[C@@H](OC(=O)C34CC5CC(CC(C5)C3)C4)C[C@H]1[C@@H]2C(=O)OC`: over 100 µM; for `CC[C@@H]1CN(C)[C@H]2Cc3c([nH]c4ccccc34)/C(=N/Nc3cnccn3)C[C@H]1[C@@H]2C(=O)OC`: over 100 µM; for `CC[C@@H]1CN(C)[C@H]2Cc3c([nH]c4ccccc34)[C@@H](O)C[C@H]1[C@@H]2C(=O)OC`: 83.9 µM.
The same measure for `CC[C@@H]1CN(C)[C@H]2Cc3c([nH]c4ccccc34)/C(=N/O)C[C@H]1[C@@H]2C(=O)OC`: 85.4 µM; for `C/C=C/C(=O)O[C@H]1C[C@@H]2[C@@H](CC)CN(C)[C@@H](Cc3c1[nH]c1ccccc31)[C@H]2C(=O)OC`: over 100 µM; for `CC[C@H]1CN(C)[C@H]2Cc3c([nH]c4ccccc34)/C(=N/Nc3ccccc3)C[C@H]1[C@@H]2C(=O)OC`: 52.7 µM.
Consider `CC[C@H]1CN(C)[C@H]2Cc3c(n(C(=O)c4cccc(C)c4)c4ccccc34)C(=O)C[C@H]1[C@@H]2C(=O)OC`, for which the IC50 is over 100 µM.
As to `CC[C@H]1CN(C)[C@H]2Cc3c([nH]c4ccccc34)C(=O)C[C@H]1[C@@H]2C(=O)OC`, the IC50 is over 100 µM.
The same measure for `CC[C@H]1CN(C)[C@H]2Cc3c(n(Cc4ccccc4)c4ccccc34)C(=O)C[C@H]1[C@@H]2C(=O)OC`: 38.1 µM; for `CC[C@H]1CN(C)[C@H]2Cc3c([nH]c4ccccc34)/C(=N/NC(=S)NCc3cccnc3)C[C@H]1[C@@H]2C(=O)OC`: 45.2 µM.
On to `CC[C@@H]1CN(C)[C@H]2Cc3c([nH]c4ccccc34)/C(=N/NC(N)=O)C[C@H]1[C@@H]2C(=O)OC`, for which the IC50 is over 100 µM.
The figure for `CC[C@@H]1CN(C)[C@H]2Cc3c([nH]c4ccccc34)C(=O)C[C@H]1[C@@H]2C(=O)OC` is over 100 µM.
The same measure for `CC[C@H]1CN(C)[C@H]2Cc3c(n(CCN(CC)CC)c4ccccc34)C(=O)C[C@H]1[C@@H]2C(=O)OC`: over 100 µM; for `CC[C@H]1CN(C)[C@H]2Cc3c(n(C)c4ccccc34)C(=O)C[C@H]1[C@@H]2C(=O)OC`: 89.2 µM.
`CC[C@@H]1CN(C)[C@H]2Cc3c([nH]c4ccccc34)/C(=N/Nc3ccc(Br)cn3)C[C@H]1[C@@H]2C(=O)OC`: the half-inhibitory concentration (IC50) was determined as 37.6 µM.
The figure for `CC[C@@H]1CN(C)[C@H]2Cc3c([nH]c4ccccc34)/C(=N/Nc3ccccc3)C[C@H]1[C@@H]2C(=O)OC` is 17 µM.
The figure for `CC[C@H]1CN(C)[C@H]2Cc3c([nH]c4ccccc34)/C(=N/Nc3cnccn3)C[C@H]1[C@@H]2C(=O)OC` is 84.8 µM; for `CC[C@H]1CN(C)[C@H]2Cc3c([nH]c4ccccc34)[C@@H](O)C[C@H]1[C@@H]2C(=O)OC` it is over 100 µM; for `CC[C@H]1CN(C)[C@H]2Cc3c([nH]c4ccccc34)/C(=N/Nc3ccc(Br)cn3)C[C@H]1[C@@H]2C(=O)OC` it is 39.9 µM.
`CC[C@H]1CN(C)[C@H]2Cc3c([nH]c4ccccc34)/C(=N/NC(N)=O)C[C@H]1[C@@H]2C(=O)OC`: the IC50 is over 100 µM.
As for `CC[C@H]1CN(C)[C@H]2Cc3c([nH]c4ccccc34)C(=S)C[C@H]1[C@@H]2C(=O)OC`, the half-inhibitory concentration (IC50) was determined as 77.9 µM.
Consider `CC[C@H]1CN(C)[C@H]2Cc3c([nH]c4ccccc34)/C(=N/O)C[C@H]1[C@@H]2C(=O)OC`, for which the IC50 came to 16.7 µM.

(Values after BindingDB's records for doi:10.1016/j.ejmech.2017.01.044 (Universidade De Lisboa, 2017).)
